US20240148821A1, “PHARMACEUTICAL USE OF CYCLIC PEPTIDE COMPOUND” (CHUGAI SEIYAKU KABUSHIKI KAISHA, priority 2021, published 2024)
Numbered stars: 1 amine (or outer) side, 2 acyl side, 3 side chain; on linkers, the order of the positions; unused ones are H or OH. Bridge positions count the residues as written; N and C are the ends. Square brackets hold non-standard residues; d marks the D form. Peptide text beside a SMILES is read from it. * marks the point of attachment. hPhe(3-Cl-4-CF3) = N[C@@H](CCc1ccc(C(F)(F)F)c(Cl)c1)C(=O)O; hPhe(3-F,4-CF3) = N[C@@H](CCc1ccc(C(F)(F)F)c(F)c1)C(=O)O; X126 = O=C([C@H](Cc1cc(F)cc(I)c1)N[*:1])[*:2]; 3Oxa8azabicyclo(3.2.1)octane = C1CC2COCC1N2*; NMePhe(2-Cl) = CN[C@@H](Cc1ccccc1Cl)C(=O)O; NMedβ3hAla = C[C@H](CC(=O)[*:2])N(C)[*:1]; Pro(4,4-F2) = O=C(O)[C@@H]1CC(F)(F)CN1; NMeY = CN[C@@H](Cc1ccc(O)cc1)C(=O)O; NMeCha = CN[C@@H](CC1CCCCC1)C(=O)O; NMeGly(cPr) = CN[C@H](C(=O)O)C1CC1; NMeChg = CN[C@H](C(=O)O)C1CCCCC1; NMeD = CN[C@@H](CC(=O)O)C(=O)O; NMeL = CN[C@@H](CC(C)C)C(=O)O; NMeV = CN[C@H](C(=O)O)C(C)C; d(β3hA) = C[C@@H](N)CC(=O)O; NMeAbu = CC[C@H](NC)C(=O)O; dPip = O=C(O)[C@H]1CCCCN1; NMeA = CN[C@@H](C)C(=O)O; NMeAib = CNC(C)(C)C(=O)O; Nle = CCCC[C@H](N)C(=O)O; Piperidide = C1CCN(*)CC1; Pyrrolidide = C1CCN(*)C1; Ac5c = NC1(C(=O)O)CCCC1; Aze = O=C(O)[C@@H]1CCN1; Aib = CC(C)(N)C(=O)O; Sar = CNCC(=O)O

tested on: Human pancreatic cancer cell line AsPC-1 (G12D mutation Kras); assay: AsPC-1 cell growth inhibition (AsPC-1 CGI); assay type: cell-based; conditions: read-out: AsPC-1 cell growth inhibition, 50% growth inhibitory concentration (IC50 value); 96 hours, CellTiter-Glo, values classified in ranges
Experimental: Test compounds were serially dilated with dimethyl sulfoxide, and 200 nL was then dispensed to a U-bottom 96-well plate using Labcyte Echo. […] The cell suspension was dispensed to a. plate containing a test compound at 100 μL per well and incubated at 37° C. in a 5% carbon dioxide gas incubator. 96 hours later, 80 μL of CellTiter-Glo (Promega) was added to each well and fluorescence was measured.

**Q.** For CC[C@H](C)[C@@H]1NC(=O)[C@H](C2CC2)N(C)C(=O)C[C@@H](C)NC(=O)[C@H](C(C)C)N(C)C(=O)C2(CCCC2)NC(=O)[C@@H]2CCCN2C(=O)[C@H](CCc2ccc(C(F)(F)F)c(Cl)c2)NC(=O)CN(C)C(=O)[C@H](CC2CCCCC2)N(C)C(=O)CN(C)C(=O)CN(C)C1=O [Compound 844] (cyclo([Ac5c][NMeV][d(β3hA)][NMeGly(cPr)]I[Sar][Sar][NMeCha][Sar][hPhe(3-Cl-4-CF3)]P)), which IC50 is on record?
**A.** The IC50 was over 500 nM.

**Q.** CC[C@H](C)[C@@H]1NC(=O)[C@H](CC(C)C)N(C)C(=O)C[C@@H](C)N(C)C(=O)[C@H](C2CC2)N(C)C(=O)C2(CCCC2)NC(=O)[C@@H]2CCCN2C(=O)[C@H](CCc2ccc(C(F)(F)F)c(Cl)c2)NC(=O)CN(C)C(=O)[C@H](CC2CCCCC2)N(C)C(=O)CN(C)C(=O)CN(C)C1=O [Compound 874] (cyclo([Ac5c][NMeGly(cPr)][NMedβ3hAla][NMeL]I[Sar][Sar][NMeCha][Sar][hPhe(3-Cl-4-CF3)]P)) was tested. Which IC50 did it give?
**A.** The IC50 was over 500 nM.

**Q.** How did the IC50 turn out when CC[C@H](C)[C@@H]1NC(=O)[C@H](C)N(C)C(=O)C[C@@H](C(=O)N2CCCCC2)N(C)C(=O)[C@H](C(C)C)N(C)C(=O)C2(CCCC2)NC(=O)[C@@H]2CCCN2C(=O)[C@H](CCc2ccc(C(F)(F)F)c(Cl)c2)NC(=O)[C@H]2CCCCN2C(=O)[C@H](CC2CCCCC2)N(C)C(=O)[C@@H]2CCN2C(=O)CN(C)C1=O [Compound 553] ([NMeA]I[Sar][Aze][NMeCha][dPip][hPhe(3-Cl-4-CF3)]P[Ac5c][NMeV][NMeD]-Piperidide; lactam N-11) was run?
**A.** The IC50 was over 500 nM.

**Q.** With CC[C@H](C)[C@@H]1NC(=O)[C@H](CC(C)C)N(C)C(=O)C[C@@H](C(=O)N2CCCCC2)N(C)C(=O)[C@H](CC(C)C)NC(=O)C(C)(C)N(C)C(=O)[C@H](CC(C)C)NC(=O)[C@H](CCc2ccc(C(F)(F)F)c(F)c2)NC(=O)CN(C)C(=O)[C@H](CC2CCCCC2)N(C)C(=O)CN(C)C(=O)CN(C)C1=O [Compound 969] ([NMeL]I[Sar][Sar][NMeCha][Sar][hPhe(3-F,4-CF3)]L[NMeAib]L[NMeD]-Piperidide; lactam N-11) as the compound, how does the IC50 read?
**A.** Its IC50 is over 500 nM.

**Q.** With CCCC[C@@H]1NC(=O)[C@H](Cc2cc(F)cc(I)c2)NC(=O)CN(C)C(=O)[C@H](Cc2ccc(OC)cc2)N(C)C(=O)[C@@H]2CCN2C(=O)[C@H](C)N(C)C(=O)[C@H]([C@@H](C)CC)NC(=O)[C@H](CC)N(C)C(=O)C[C@@H](C(=O)N2CCCCC2)N(C)C(=O)[C@H](CC(C)C)NC(=O)C(C)(C)N(C)C1=O [Compound 1226] ([NMeAbu]I[NMeA][Aze][NMeY](Me)[Sar][X126][Nle][NMeAib]L[NMeD]-Piperidide; lactam N-11) as the compound, how does the IC50 read?
**A.** Its IC50 is over 500 nM.

**Q.** CC[C@H](C)[C@@H]1NC(=O)[C@H](C)N(C)C(=O)C[C@@H](C(=O)N2CCCC2)N(C)C(=O)[C@H](C(C)C)N(C)C(=O)C(C)(C)NC(=O)[C@H](Cc2ccccc2Cl)N(C)C(=O)[C@H](CCc2ccc(C(F)(F)F)c(Cl)c2)NC(=O)CN(C)C(=O)[C@H](CC2CCCCC2)N(C)C(=O)CN(C)C(=O)CN(C)C1=O [Compound 426] ([NMeA]I[Sar][Sar][NMeCha][Sar][hPhe(3-Cl-4-CF3)][NMePhe(2-Cl)][Aib][NMeV][NMeD]-Pyrrolidide; lactam N-11) was tested. Which IC50 did it give?
**A.** The IC50 was over 500 nM.

**Q.** CC[C@H](C)[C@@H]1NC(=O)[C@H](CC(C)C)N(C)C(=O)C[C@@H](C(=O)N2C3CCC2COC3)N(C)C(=O)[C@H](C2CCCCC2)N(C)C(=O)C2(CCCC2)NC(=O)[C@@H]2CC(F)(F)CN2C(=O)[C@H](CCc2ccc(C(F)(F)F)c(Cl)c2)NC(=O)CN(C)C(=O)[C@H](CC2CCCCC2)N(C)C(=O)CN(C)C(=O)CN(C)C1=O [Compound 1179] ([NMeL]I[Sar][Sar][NMeCha][Sar][hPhe(3-Cl-4-CF3)][Pro(4,4-F2)][Ac5c][NMeChg][NMeD]-{3Oxa8azabicyclo(3.2.1)octane}; lactam N-11) was tested. Which IC50 did it give?
**A.** The IC50 was at most 20 nM.
